{
  "source": "paper PMC6572064",
  "about": "“Discovery of 2-(1-(3-(4-Chloroxyphenyl)-3-oxo- propyl)pyrrolidine-3-yl)-1H-benzo[d]imidazole-4-carboxamide: A Potent Poly(ADP-ribose) Polymerase (PARP) Inhibitor for Treatment of Cancer” (Molecules, 2019)",
  "key": {"[1]": {"system": "CAPAN-1 (a BRCA-2-mutated pancreatic cancer cell line)", "assay": "Cell proliferation assay, three-day, CellTiter-Glo, CAPAN-1", "format": "cell-based", "conditions": "for inhibition at 0.00508 µM: CAPAN-1, Conc. 0.00508 uM; for inhibition at 0.0152 µM: CAPAN-1, Conc. 0.0152 uM; for inhibition at 0.0457 µM: CAPAN-1, Conc. 0.0457 uM; for inhibition at […]: CAPAN-1, Conc. 0.14 uM; for inhibition at 0.41 µM: CAPAN-1, Conc. 0.41 uM; for inhibition at 1.23 µM: CAPAN-1, Conc. 1.23 uM; for inhibition at 3.7 µM: CAPAN-1, Conc. 3.70 uM; for inhibition at 11.11 µM: CAPAN-1, Conc. 11.11 uM; for inhibition at 33.33 µM: CAPAN-1, Conc. 33.33 uM; for inhibition at 100 µM: CAPAN-1, Conc. 100.00 uM", "procedure": "(§1) A three-day assay was conducted. A cell suspension was prepared. Cell density was counted by an automated cell counter and then diluted to the required density, according to seeding density. 50 μL cells were seeded into 384-well plate in growth medium according to the plate map. The cells were incubated at 37 °C, 5% CO2 overnight.\n(§2) 200× compound solution in DMSO was prepared and diluted with growth medium to 26× final concentration by addition of 26 μL 200× compounds to 174 μL growth medium. Then 2 μL of diluted compound solution was added to cells and the cell was incubated at 37 °C, 5% CO2 for 72 h.\n(§3) The assay plate was equilibrated to room temperature prior to measurement. 15 μL of CellTiter-Glo Reagent was added into each well and the contents were mixed for 2 min on an orbital shaker to induce cell lysis. The cells were incubated at room temperature for 60 min to stabilize luminescent signal. Luminescence was recorded on the Envision system."}, "[2]": {"system": "MDA-MB-436 (a BRCA-1-mutated breast cancer cell line)", "assay": "Cell proliferation assay, three-day, CellTiter-Glo, MDA-MB-436", "format": "cell-based", "conditions": "for inhibition at 0.00508 µM / inhibition at 0.0152 µM / inhibition at 0.0457 µM / inhibition at 0.41 µM / inhibition at 1.23 µM / inhibition at 3.7 µM / inhibition at 11.11 µM / inhibition at 33.33 µM / inhibition at 100 µM / IC50: Homo sapiens; for inhibition at 0.00508 µM: MDA-MB-436, MDA-MB-436, Conc. 0.00508 uM; for inhibition at 0.0152 µM: MDA-MB-436, MDA-MB-436, Conc. 0.0152 uM; for inhibition at 0.0457 µM: MDA-MB-436, MDA-MB-436, Conc. 0.0457 uM; for inhibition at 0.41 µM: MDA-MB-436, MDA-MB-436, Conc. 0.41 uM; for inhibition at 1.23 µM: MDA-MB-436, MDA-MB-436, Conc. 1.23 uM; for inhibition at 3.7 µM: MDA-MB-436, MDA-MB-436, Conc. 3.70 uM; for inhibition at 11.11 µM: MDA-MB-436, MDA-MB-436, Conc. 11.11 uM; for inhibition at 33.33 µM: MDA-MB-436, MDA-MB-436, Conc. 33.33 uM; for inhibition at 100 µM: MDA-MB-436, MDA-MB-436, Conc. 100.00 uM", "procedure": "as §1, §2, §3"}, "[3]": {"conditions": "CAPAN-1, curve fit of Inh %, plate 1"}, "[4]": {"conditions": "Homo sapiens, replicate 1, read-out: Inh % 1"}, "[5]": {"conditions": "Homo sapiens, replicate 2, read-out: Inh % 2"}},
  "note": "Several values for one entry are separate records, joined by “and”; a condition that tells them apart may be missing. Equal values may be shown once. Read-outs that look alike come from different tables or passages of the source.",
  "data": [
    {"smiles": "CN[C@@H]1C[C@H]2O[C@@](C)([C@@H]1OC)n1c3ccccc3c3c4c(c5c6ccccc6n2c5c31)C(=O)NC4", "note": "[STS, reference compound]", "values": [
      {"measurement": "IC50", "setting": "[1]; CAPAN-1, 72 h, supplement Summary sheet, read-out: IC50", "value": 0.0647, "unit": "µM"},
      {"measurement": "Bottom", "setting": "[1]; [3]", "value": "8.442 and 8.44"},
      {"measurement": "HillSlope", "setting": "[1]; [3]", "value": "0.6137 and 0.61"},
      {"measurement": "Top", "setting": "[1]; [3]", "value": 105.1},
      {"measurement": "IC50", "setting": "[1]; CAPAN-1, curve fit, plate 1, read-out: IC50", "value": 0.0647, "unit": "µM"}
    ]},
    {"smiles": "O=C(c1cc(Cc2n[nH]c(=O)c3ccccc23)ccc1F)N1CCN(C(=O)C2CC2)CC1", "note": "[pc2, Olaparib, reference compound]", "values": [
      {"measurement": "CAPAN-1 IC50 (μM)", "setting": "[1]; 72 h, CellTiter-Glo", "value": "low potency"},
      {"measurement": "LogIC50", "setting": "[1]; CAPAN-1, curve-fit output, concentration axis Log (uM)", "value": 2.033},
      {"measurement": "IC50", "setting": "[1]; Homo sapiens, CAPAN-1, 72 h, CellTiter-Glo, read-out: CAPAN-1 IC50", "value": "> 100", "unit": "µM"},
      {"measurement": "inhibition at 0.00508 µM", "setting": "[1]; [4]", "value": 1.8, "unit": "%"},
      {"measurement": "inhibition at 0.00508 µM", "setting": "[1]; [5]", "value": -2, "unit": "%"},
      {"measurement": "inhibition at 0.0152 µM", "setting": "[1]; [4]", "value": 5.2, "unit": "%"},
      {"measurement": "inhibition at 0.0152 µM", "setting": "[1]; [5]", "value": -2.3, "unit": "%"},
      {"measurement": "inhibition at 0.0457 µM", "setting": "[1]; [4]", "value": -6.9, "unit": "%"},
      {"measurement": "inhibition at 0.0457 µM", "setting": "[1]; [5]", "value": 0.662, "unit": "%"},
      {"measurement": "inhibition at […]", "setting": "[1]; [4]", "value": 0.107, "unit": "%"},
      {"measurement": "inhibition at […]", "setting": "[1]; [5]", "value": 6.2, "unit": "%"},
      {"measurement": "inhibition at 0.41 µM", "setting": "[1]; [4]", "value": 4.3, "unit": "%"},
      {"measurement": "inhibition at 0.41 µM", "setting": "[1]; [5]", "value": 7.9, "unit": "%"},
      {"measurement": "inhibition at 1.23 µM", "setting": "[1]; [4]", "value": 15.1, "unit": "%"},
      {"measurement": "inhibition at 1.23 µM", "setting": "[1]; [5]", "value": 0.6, "unit": "%"},
      {"measurement": "inhibition at 3.7 µM", "setting": "[1]; [4]", "value": 21.3, "unit": "%"},
      {"measurement": "inhibition at 3.7 µM", "setting": "[1]; [5]", "value": 11.6, "unit": "%"},
      {"measurement": "inhibition at 11.11 µM", "setting": "[1]; [4]", "value": 18.6, "unit": "%"},
      {"measurement": "inhibition at 11.11 µM", "setting": "[1]; [5]", "value": 23.5, "unit": "%"},
      {"measurement": "inhibition at 33.33 µM", "setting": "[1]; [4]", "value": 38.5, "unit": "%"},
      {"measurement": "inhibition at 33.33 µM", "setting": "[1]; [5]", "value": 34.2, "unit": "%"},
      {"measurement": "inhibition at 100 µM", "setting": "[1]; [4]", "value": 48.2, "unit": "%"},
      {"measurement": "inhibition at 100 µM", "setting": "[1]; [5]", "value": 47.5, "unit": "%"},
      {"measurement": "inhibition at 0.00508 µM", "setting": "[2]; replicate 1, read-out: Inh % 1", "value": 4.1, "unit": "%"},
      {"measurement": "inhibition at 0.00508 µM", "setting": "[2]; replicate 2, read-out: Inh % 2", "value": -2.3, "unit": "%"},
      {"measurement": "inhibition at 0.0152 µM", "setting": "[2]; replicate 1, read-out: Inh % 1", "value": 1.7, "unit": "%"},
      {"measurement": "inhibition at 0.0152 µM", "setting": "[2]; replicate 2, read-out: Inh % 2", "value": -1.2, "unit": "%"},
      {"measurement": "inhibition at 0.0457 µM", "setting": "[2]; replicate 1, read-out: Inh % 1", "value": -5.7, "unit": "%"},
      {"measurement": "inhibition at 0.0457 µM", "setting": "[2]; replicate 2, read-out: Inh % 2", "value": -2.8, "unit": "%"},
      {"measurement": "inhibition at 0.41 µM", "setting": "[2]; replicate 1, read-out: Inh % 1", "value": 0.181, "unit": "%"},
      {"measurement": "inhibition at 0.41 µM", "setting": "[2]; replicate 2, read-out: Inh % 2", "value": 5.7, "unit": "%"},
      {"measurement": "inhibition at 1.23 µM", "setting": "[2]; replicate 1, read-out: Inh % 1", "value": 4, "unit": "%"},
      {"measurement": "inhibition at 1.23 µM", "setting": "[2]; replicate 2, read-out: Inh % 2", "value": 2, "unit": "%"},
      {"measurement": "inhibition at 3.7 µM", "setting": "[2]; replicate 1, read-out: Inh % 1", "value": 12.4, "unit": "%"},
      {"measurement": "inhibition at 3.7 µM", "setting": "[2]; replicate 2, read-out: Inh % 2", "value": 13.5, "unit": "%"},
      {"measurement": "inhibition at 11.11 µM", "setting": "[2]; replicate 1, read-out: Inh % 1", "value": 23.3, "unit": "%"},
      {"measurement": "inhibition at 11.11 µM", "setting": "[2]; replicate 2, read-out: Inh % 2", "value": 24.2, "unit": "%"},
      {"measurement": "inhibition at 33.33 µM", "setting": "[2]; replicate 1, read-out: Inh % 1", "value": 50.1, "unit": "%"},
      {"measurement": "inhibition at 33.33 µM", "setting": "[2]; replicate 2, read-out: Inh % 2", "value": 43.1, "unit": "%"},
      {"measurement": "inhibition at 100 µM", "setting": "[2]; replicate 1, read-out: Inh % 1", "value": 92.4, "unit": "%"},
      {"measurement": "inhibition at 100 µM", "setting": "[2]; replicate 2, read-out: Inh % 2", "value": 90.9, "unit": "%"},
      {"measurement": "IC50", "setting": "[2]; MDA-MB-436, 72 h, CellTiter-Glo, read-out: MDA-MB-436 IC50", "value": 30.2, "unit": "µM"},
      {"measurement": "IC50", "setting": "[2]; MDA-MB-436, 72 h, supplement Summary sheet, read-out: IC50", "value": 30.2, "unit": "µM"},
      {"measurement": "IC50", "setting": "[2]; MDA-MB-436, curve-fit parameter list, concentrations in uM, read-out: IC50", "value": 30.2, "unit": "µM"},
      {"measurement": "LogIC50", "setting": "[2]; MDA-MB-436, curve-fit parameter list, Log (uM)", "value": 1.481}
    ]}
  ]
}
